“Also recorded” adds a separate entry of the source.
Assays:
[1] = biological target: T1, Flavobacterium heparinum N-sulfamidase (ORF C), recombinant, NH2-terminal truncation lacking signal sequence, SEQ ID NO: 4 (Pedobacter heparinus, UniProt C6Y1N3); assay: Inhibition of N-sulfamidase activity (sulfate, phosphate, chelators); assay type: biochemical
T1 construct: E. coli BL21(DE3), N-terminal 6xHis removed by thrombin
Method: Results are normalized to 0.0 M NaCl added (which is shown as 100%). […] Relative activities (% desulfation) were measured over a pH range of 4-8 using three buffers: sodium acetate (●), MES (◯) and MOPS (▴).
Enzyme kinetics were measured for the 6-O-sulfatase (FIG. 8C) and N-sulfamidase (FIG. 8D) as described in Materials and Methods at varying concentrations of Ca^+2 or in the presence of 1 mM EDTA. Substrate saturation plots were fitted to pseudo first-order Michaelis-Menten kinetics by non-linear regression analyses.
Indirect measurement of enzyme activity was also made using a fluorimetrically-based plate assay in which the prerequisite desulfation of the appropriate glucopyranoside 1→4 methlybelliferone substrate by either the 6-O-sulfatase or N-sulfamidase was coupled to the glucosidase-mediated hydrolysis of the stereo-specific 1→4 glycosidic linkage between the pyranose ring and the adjoining fluorophore. Release of the free fluorophore (4-MU) was monitored spectroscopically as described above for the arylsulfatase assay using 4-MU sulfate. The two sulfatase assays differed in the choice of substrate in accordance to their specificity as well as the glucosidase added during the second, rate-limiting step. For the 6-O-sulfatase, the hydrolysis of the substrate 4-MU-β-D-GlcNAc,6S at the 6-OH position was coupled to β-glucosidase purified from sweet almonds (MP Biomedicals, Solon, Ohio, Catalog No. 195197). Likewise, N-sulfamidase hydrolysis of 4-MU-α-D-GlcNS at the 2-amino position was coupled to α-glucosidase (MP Biomedicals, Catalog No. 153487). […] The presumption of the first (sulfatase) activity being the rate-limiting step was established experimentally. Reaction conditions were optimized to satisfy three related criteria: 1) linear readout of fluorescent signal which is directly proportional to sulfatase activity; 2) quantitative release of 4-MU by glucosidase activity under every biochemical condition examined and; 3) negligible fluorescent quenching of the free chromophore.
Coupled N-sulfamidase assay was generally described for the 6-O-sulfatase, but with the following modifications: 4-MU-GlcNS as substrate, 50 mM sodium acetate at pH 6.0 (instead of 5.5) and 1 μM enzyme. For the second enzyme step, 5 units of α-glucosidase were added. Enzyme incubation was carried out for 22 hours at 37° C. […] All other reaction conditions were as described for the coupled 6-O-sulfatase/β-glucosidase assay.
Having identified chromogenic substrates for each recombinant sulfatase, these substrates were also used to further develop a fluorescence-based plate assay as the means to define the optimal in vitro reaction conditions for each sulfatase.

[2] = biological target: T2, Flavobacterium heparinum 6-O-sulfatase (ORF B), recombinant, NH2-terminal truncation lacking signal sequence, SEQ ID NO: 2 (Pedobacter heparinus, UniProt C6Y1N4); assay: Inhibition of 6-O-sulfatase activity (sulfate, phosphate, chelators); assay type: biochemical
T2 construct: E. coli BL21(DE3), N-terminal 6xHis removed by thrombin
T2 sequence (C6Y1N4 entry or part of it): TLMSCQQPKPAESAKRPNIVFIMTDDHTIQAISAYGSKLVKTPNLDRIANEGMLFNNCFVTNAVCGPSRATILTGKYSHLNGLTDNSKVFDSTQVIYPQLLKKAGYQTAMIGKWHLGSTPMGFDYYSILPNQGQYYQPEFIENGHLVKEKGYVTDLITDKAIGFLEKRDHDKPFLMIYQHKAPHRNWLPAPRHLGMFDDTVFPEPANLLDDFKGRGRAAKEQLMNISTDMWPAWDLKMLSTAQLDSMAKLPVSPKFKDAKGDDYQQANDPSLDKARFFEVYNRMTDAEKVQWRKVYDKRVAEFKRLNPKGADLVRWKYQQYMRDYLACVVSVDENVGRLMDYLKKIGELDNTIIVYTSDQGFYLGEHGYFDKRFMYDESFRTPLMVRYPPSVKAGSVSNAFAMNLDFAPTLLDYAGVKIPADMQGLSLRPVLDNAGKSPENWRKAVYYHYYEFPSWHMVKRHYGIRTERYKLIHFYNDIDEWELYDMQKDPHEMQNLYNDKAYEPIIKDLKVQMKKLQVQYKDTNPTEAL
Method: Results are normalized to 0.0 M NaCl added (which is shown as 100%). 6-O-sulfatase (●); N-sulfamidase (◯). […] Results for 6-O-sulfatase are represented by a solid line; results for N-sulfamidase are represented by a dashed line. […] Log scale for inhibitor concentration, [I]. […] Relative activities (% desulfation) were measured over a pH range of 4-8 using three buffers: sodium acetate (●), MES (◯) and MOPS (▴).
Open bars (no divalent metals added); black bars (1 mM EDTA added); light gray bars (1 mM divalent metal); stippled gray bars (5 mM divalent metal). […] Enzyme kinetics were measured for the 6-O-sulfatase (FIG. 8C) and N-sulfamidase (FIG. 8D) as described in Materials and Methods at varying concentrations of Ca^+2 or in the presence of 1 mM EDTA. Substrate saturation plots were fitted to pseudo first-order Michaelis-Menten kinetics by non-linear regression analyses. 0.5 mM Ca^+2 (●), 1 mM Ca^+2 (◯), 5 mM Ca^+2 (▪), 1 mM EDTA (Δ).
Indirect measurement of enzyme activity was also made using a fluorimetrically-based plate assay in which the prerequisite desulfation of the appropriate glucopyranoside 1→4 methlybelliferone substrate by either the 6-O-sulfatase or N-sulfamidase was coupled to the glucosidase-mediated hydrolysis of the stereo-specific 1→4 glycosidic linkage between the pyranose ring and the adjoining fluorophore. Release of the free fluorophore (4-MU) was monitored spectroscopically as described above for the arylsulfatase assay using 4-MU sulfate. The two sulfatase assays differed in the choice of substrate in accordance to their specificity as well as the glucosidase added during the second, rate-limiting step. […] Reaction conditions were optimized to satisfy three related criteria: 1) linear readout of fluorescent signal which is directly proportional to sulfatase activity; 2) quantitative release of 4-MU by glucosidase activity under every biochemical condition examined and; 3) negligible fluorescent quenching of the free chromophore. […]

T1 sequence (C6Y1N3 entry or part of it): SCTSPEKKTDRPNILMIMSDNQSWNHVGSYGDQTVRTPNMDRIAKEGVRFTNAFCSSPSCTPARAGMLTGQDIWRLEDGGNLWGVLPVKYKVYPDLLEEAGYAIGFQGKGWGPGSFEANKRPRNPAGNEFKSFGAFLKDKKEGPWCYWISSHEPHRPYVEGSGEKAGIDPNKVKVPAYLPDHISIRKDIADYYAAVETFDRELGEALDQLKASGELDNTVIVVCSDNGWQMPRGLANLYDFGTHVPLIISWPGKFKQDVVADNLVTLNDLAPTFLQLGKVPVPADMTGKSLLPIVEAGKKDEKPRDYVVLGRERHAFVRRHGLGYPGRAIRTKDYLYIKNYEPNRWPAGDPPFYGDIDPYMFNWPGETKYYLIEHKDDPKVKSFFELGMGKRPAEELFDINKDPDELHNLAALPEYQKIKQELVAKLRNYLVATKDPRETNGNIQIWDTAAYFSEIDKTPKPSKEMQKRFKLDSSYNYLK

phosphate was tested, and the “inhibition of N-sulfamidase by sulfate or phosphate” value [1] was “largely uninhibited; also recorded: not apparently inhibited”.

With `O=C(O)CN(CCOCCOCCN(CC(=O)O)CC(=O)O)CC(=O)O` [EGTA] the “effect on 6-O-sulfatase specific activity” value ([2]; EGTA, same conditions as N-sulfamidase (5 mM Ca^2+)) was “no appreciable effect”.

For `O=S(=O)(O)O` [sulfate], the “inhibition of N-sulfamidase by sulfate or phosphate” value [1] was “largely uninhibited; also recorded: not apparently inhibited” and the IC50 ([2]; normalized to 0 sulfate or phosphate added, read-out: concentration for 50% inhibition of 6-O-sulfatase activity) was ~20 mM.

With `O=C(O)CN(CCN(CC(=O)O)CC(=O)O)CC(=O)O` [EDTA, ethylenediaminetetracetic acid] the “N-sulfamidase activity in the presence of EDTA” value ([1]; 1 mM EDTA) was “lack of activity” and the “6-O-sulfatase activity in the presence of EDTA” value ([2]; 1 mM EDTA) was “somewhat active”.

Reference: US8846363B2, “Compositions of and methods of using sulfatases from Flavobacterium heparinum” (priority 2007, dated 2014)
